# Where a name gives a salt, the structure may show the parent alone. Read-outs that look alike come from different tables or passages of the source.
# How the values were obtained:
# [1] = test system: C57BL/6J mice fed by high-fat diet; assay: intraperitoneal glucose tolerance test (ipGTT) in high-fat diet obese mice; format: in vivo; details: 100 mg/kg/day in high-fat diet for 2 weeks, glucose 2 g/kg intraperitoneally
# Method: (§1) Ten mice per group were used to perform the efficacy study of the compounds. Dihydroberberine derivative 19 or its sulfate salt was mixed into the high-fat diet, and administered at a dose of 100 mg/kg/day for 2 weeks. After the mice were starved overnight, basal blood sugar value (0 min) was measured by taking blood from tail vein. Then the mice were injected glucose intraperitoneally at a dose of 2 g/kg according to the body weight of the mice in control group which were fed by normal diet followed by measuring blood sugar value at 15, 30, 45, 60, 90 and 120 min respectively and calculating the area under curve (AUC). The body weight and visceral fat of the mice were weighted, and the contents of fatty acid and triglyceride in the blood plasma of the mice were determined.
# (§2) In FIGS. 2-4, CH-con means the normal mouse, HF-con refers to the obese mouse, HF-BBR19 is the obese mouse treated with dihydroberberine derivative 19 for 2 weeks, and HF-BBR19Y is the obese mouse treated with the sulfate salt of dihydroberberine derivative 19 for 2 weeks.
# The mice which had been treated with dihydroberberine derivative 19 or its sulfate salt for 2 weeks and the mice in control group were intraperitoneally injected glucose at 2 g/kg after being starved overnight. […]
# [2] = test system: C57BL/6J mice fed by high-fat diet; assay: body weight and visceral fat of high-fat diet obese mice; format: in vivo; details: 100 mg/kg/day for 2 weeks
# Method: as §1, §2
# Thus they may have a potential effect on treating obesity.
# [3] = test system: C57BL/6J mice fed by high-fat diet; assay: free fatty acid and triglyceride in blood plasma of high-fat diet obese mice; format: in vivo; details: 100 mg/kg/day for 2 weeks
# Method: as §1, §2
# [4] = test system: C57BL/6J mice fed by high-fat diet; assay: mouse models with insulin resistance and obesity induced by a high-fat diet (experimental conclusion); format: in vivo; details: high-fat diet mouse model
# Method: as §1
# L6 muscle cells [5] = assay: glucose absorption model test in L6 muscle cells; format: cell-based
# Method: (§3) In our study, the glucose transport rate in L6 muscle cells increased by about 3 times with 10 μM berberine hydrochloride. In a further glucose absorption model test in L6 muscle cells, the glucose absorption in L6 muscle cells increased by more than 2 times with […] berberine hydrochloride in 20 mM glucose medium. […] The improvement in glucose absorption induced by insulin was inhibited obviously, while that induced by berberine was not affected after the treatment with wortmannin, a specific inhibitor of insulin signaling pathway.
# [6] = test system: insulin signaling pathway; assay: immunoblotting assay of L6 muscle cells, insulin signaling pathway; format: cell-based
# AMPK = assay: immunoblotting assay of L6 muscle cells, AMPK; format: cell-based
# p38 MAPK kinase = assay: immunoblotting assay of L6 muscle cells, p38 MAPK; format: cell-based
# AMP:ATP ratio in cells = AMP:ATP ratio in cells by high performance liquid chromatography; format: cell-based; details: HPLC
# HepG2 cells = details: 5-100 μmol of berberine; cited from earlier work
# βTC3 cells = details: cited from earlier work
# type 2 diabetic patients = details: cited from earlier work
# [7] = test system: normal mice and alloxan-induced diabetic mice; details: Chen, Xie 1986, cited from earlier work
# diabetic mice = details: Liu 1996; cited from earlier work
# [8] = test system: insulin receptor genes and peroxisome proliferator activated receptor genes; details: Jiang, CN01121906.8; cited from earlier work
# L6 muscle cells [9] = details: 400 μM; cited from earlier work
# L6 muscle cells [10] = assay: model test on the glucose transport in L6 muscle cells; format: cell-based; details: 10 μM
# Method: So, berberine belongs to non-insulin dependent glucose absorption enhancer in the peripheral tissues of the human body. […] In a model test on the glucose transport in L6 muscle cells, the transport rate of 3-methyl glucose in L6 muscle cells increased by about 0.5 times with 400 μM metformin hydrochloride. Berberine hydrochloride could achieve the same effect with less dosage than metformin in a model test on the glucose transport in L6 muscle cells in vitro.
# as §3
compound,measurement,setting,value
COc1ccc2c(c1OC)CN1CCc3cc4c(cc3C1=C2)OCO4 [Compound 19],"glucose tolerance (ipGTT, area under curve)",[1],significantly improved
same,increase in body weight versus control group,[2],significantly less
same,ratio of intra-abdominal (visceral) fat to body weight versus control group,[2],lowered significantly
same,content of free fatty acid (NEFA) in blood plasma,[3]; HF-Con 0.76±0.03,0.6 ± 0.05 mmol/L
same,content of triglyceride TG in blood plasma,[3]; HF-Con 1.20±0.05,0.86 ± 0.08 mmol/L
same,improving insulin resistance,[4],significant effects
same,relieving fatty liver,[4],significant effects
"COc1ccc2cc3[n+](cc2c1OC)CCc1cc2c(cc1-3)OCO2 [berberine, Berberine]",glucose absorption induced by berberine after treatment with AMPK and p38 MAPK specific inhibitors,L6 muscle cells [5]; Compound C and SB202190,obviously lowered
same,glucose absorption induced by berberine after treatment with wortmannin,"L6 muscle cells [5]; wortmannin, specific inhibitor of insulin signaling pathway",not affected
same,effect on insulin signaling pathway,[6],little effect
same,activity of AMPK,AMPK,significantly reinforced
same,activity of p38 MAPK kinase,p38 MAPK kinase,significantly reinforced
same,AMP:ATP ratio in cells,AMP:ATP ratio in cells,increased significantly
same,increase of glucose consumption in HepG2 cells,HepG2 cells,32-60%
same,stimulation of βTC3 cells to secrete insulin,βTC3 cells,did not stimulate
same,fasting blood glucose levels of all patients,"type 2 diabetic patients; 20 cases not improved by D860, glibenclamide etc., 3 months, Zhang 1999",levels of all patients were lowered to normal levels 3 months
same,side effects,"type 2 diabetic patients; 20 cases, Zhang 1999","dependent on dose, and no side effects such as hypoglycemia"
same,total efficiency,"type 2 diabetic patients; 57 cases, berberine added after secondary failure of sulfonylurea alone or with metformin, 1 month, Wang 2002",efficiency was 81%.
same,adverse effect during the treatment,"type 2 diabetic patients; 60 cases, 1-3 months, Ni 1988",hemogram during the treatment and no obvious adverse effect
same,average decrease of fasting blood glucose,"type 2 diabetic patients; 60 cases, 1-3 months, Ni 1988",that the fasting blood glucose decreased averagely by 5.1 mmol/L
same,toxic and/or adverse effects observed,"type 2 diabetic patients; 60 cases, Hu 1995",patients with overweight recovered their normal weights. No
same,blood serum insulin levels after the treatment,"type 2 diabetic patients; 68 cases, Shi 2000",The blood serum insulin levels of the patients increased
same,total efficiency,"type 2 diabetic patients; 68 cases, Shi 2000","significantly, and the total efficiency was 86.8%. The action"
same,"time to disappearance of polyuria, polydipsia and polyphagia for all patients","type 2 diabetic patients; 75 cases, Yu 1994",within two weeks after administration of berberine accompanying
same,"blood glucose levels, observed clinically",type 2 diabetic patients; Juan WANG 2004,decreased
same,"blood serum insulin levels, observed clinically",type 2 diabetic patients; Juan WANG 2004,increased
same,"curative effect (blood glucose, blood serum insulin) compared with Diamicron group","type 2 diabetic patients; non-insulin dependent diabetic patients, 30 persons per group, 4 weeks, Yu, Yan 1995",showed that the two groups had similar curative effects and no
same,patients observed with adverse effects or hypoglycemia,"type 2 diabetic patients; observed for 4 years, regardless of dose, Yu 1994","treated with berberine and observed for 4 years, and none of them"
same,effect on lowering blood glucose,[7]; dose of 40 mg/kg,atherosclerosis. It had a significant effect on lowering blood
same,lowering blood glucose levels,[7]; normal mice and alloxan-induced diabetic mice,biguanides. It can lower blood glucose levels of both normal mice
same,effect on reversing diabetic renal failure,diabetic mice,has a significant effect on reversing diabetic renal failure and
same,expressions of insulin receptor genes and peroxisome proliferator activated receptor genes,[8],Berberine can interact with insulin receptors and increase
CN(C)C(=N)N=C(N)N [metformin hydrochloride],increase of transport rate of 3-methyl glucose in L6 muscle cells,L6 muscle cells [9],about 0.5 times
COc1ccc2cc3[n+](cc2c1OC)CCc1cc2c(cc1-3)OCO2 [berberine hydrochloride],increase of glucose transport rate in L6 muscle cells,L6 muscle cells [10],about 3 times
same,increase of glucose absorption in L6 muscle cells,L6 muscle cells [5]; 5 berberine hydrochloride in 20 mM glucose medium,more than 2 times

# From patent US20100113494A1, “13,13a-Dihydroberberine Derivatives For Use In Pharmaceutical Compositions” (SHANGHAI INSTITUTE OF MATERIA MEDICA, CHINESE ACADEMY OF …, priority 2006, published 2010)
